# From patent US7479560B2, “Creatine pyroglutamic acid salts and methods for their production and use in individuals” (New Cell Formulations, Ltd., priority 2006, dated 2009)
# Where two headings read alike, the source gives them in different places.
# How the values were obtained:
# [1] = system: cerebral ischemia; settings: oral administration to experimental animals; cited from earlier work
# [2] = pH measurement of 2 g of substance in 75 ml H2O
# [3] = format: physicochemical; settings: for dissolution upon visual inspection: 2 g in 75 ml distilled water, stirred mechanically ~5 min
# [4] = system: cognitive function; settings: cited from earlier work
# [5] = system: age-associated memory impairment; settings: humans; cited from earlier work
molecule,measurement,setting,value
"CN(CC(=O)O)C(=N)N [Creatine, N-methyl-N-guanyl Glycine]",ischemic brain infarction,[1],remarkable reduction
CN(CC(=O)O)C(=N)N.O [creatine monohydrate],pH of 2 g in 75 ml H2O,[2],~7.00
same,dissolution upon visual inspection,[3]; Experiment 1,did not dissolve very well
same,dissolution after lowering pH by adding pyroglutamic acid,"[3]; Experiment 1, creatine monohydrate 2 g in 75 ml water, some pyroglutamic acid added",dissolved
same,dissolution after 30 min of stirring,"[3]; Experiment 2, 2 g in 75 ml distilled H2O, 30 min stirring",still a considerable amount of solids that did not dissolve
"O=C1CC[C@@H](C(=O)O)N1 [pyroglutamic acid, L-pyroglutamic acid]",cognitive function in rats,[4],improve
same,pH of 2 g in 75 ml H2O,[2],~2.00
same,age-associated memory impairment,[5],improves
(2-(1-methylguanidino)acetyl)oxonium (S)-5-oxopyrrolidine-2-carboxylate [creatine pyroglutamate],pH of 2 g in 75 ml H2O,[2]; listed as product obtained in Experiment 2,3.09
same,pH of 2 g in 75 ml H2O,[2]; listed as unwashed product,~3.00
same,dissolution upon visual inspection,[3]; Experiment 1,dissolved completely
same,time to complete dissolution of crystals,"[3]; Experiment 2, 2 g in 75 ml distilled H2O, stirred",≤ 5 min
